The results in this text go back to article PMC8863579, “Effects of pharmacological inhibition of the sodium‐dependent phosphate cotransporter 2b (NPT2b) on intestinal phosphate absorption in mouse and rat models” (Pharmacology Research & Perspectives, 2022).

The target in experiment [1] is T1, rat NPT2b (Rattus norvegicus, UniProt Q9JJ09).
T1 construct: Full-Length cDNA Cloning and Generation of Cell Lines Over-Expressing Human, Mouse, and Rat NPT2b; host or cells: CHO-K1 / T-REx CHO, pcDNA5/TO, tetracycline-induced
T1 sequence (Q9JJ09 1-695): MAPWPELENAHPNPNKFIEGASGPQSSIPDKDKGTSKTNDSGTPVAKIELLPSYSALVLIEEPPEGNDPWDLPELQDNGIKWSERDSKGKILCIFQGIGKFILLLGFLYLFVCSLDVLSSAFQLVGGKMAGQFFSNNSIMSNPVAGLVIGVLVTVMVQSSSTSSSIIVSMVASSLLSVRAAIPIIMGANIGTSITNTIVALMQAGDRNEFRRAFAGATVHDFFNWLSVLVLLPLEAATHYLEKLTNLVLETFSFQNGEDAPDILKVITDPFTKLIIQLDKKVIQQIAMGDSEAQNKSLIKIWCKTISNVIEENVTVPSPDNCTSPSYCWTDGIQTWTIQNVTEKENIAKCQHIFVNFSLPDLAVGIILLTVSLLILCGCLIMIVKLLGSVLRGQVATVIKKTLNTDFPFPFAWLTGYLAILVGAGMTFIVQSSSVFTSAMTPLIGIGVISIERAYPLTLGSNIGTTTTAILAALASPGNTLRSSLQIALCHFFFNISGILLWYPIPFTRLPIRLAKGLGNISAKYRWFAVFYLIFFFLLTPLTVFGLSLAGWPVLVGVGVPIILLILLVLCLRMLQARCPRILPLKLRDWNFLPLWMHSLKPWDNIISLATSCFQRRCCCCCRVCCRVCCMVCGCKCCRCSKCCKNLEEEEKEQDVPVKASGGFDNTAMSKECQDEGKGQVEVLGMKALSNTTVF
In words: 33P-phosphate uptake in CHO cells expressing rat NPT2b. The note with it: geometric mean; 2.5 µM phosphate, 60 min, room temperature. In kind it is cell-based. How it is done: (§1) T‐Rex™ Chinese Hamster Ovary cells (CHO; Thermo Fisher Scientific) stably expressing human, mouse, or rat NPT2b under a tetracycline‐inducible promoter were generated using standard cDNA transfection and clone selection procedures (see Supporting Information). Cells were plated in 96‐well CytoStar‐T® scintillating microplates and were incubated overnight in growth media plus 100 ng/ml of tetracycline to induce expression of NPT2b. The next day, cells were washed 3 times with 200 µl assay buffer (137 mM NaCl, 5.4 mM KCl, 2.8 mM CaCl2, 1.2 mM MgSO4, and 14 mM Tris‐HCl buffer, pH 7.5). LY3358966 serially diluted 1‐to‐3 in DMSO was added to cells with assay buffer. An equal volume of H3 ^33PO4 (PerkinElmer) in assay buffer supplemented with 5 µM potassium phosphate was then added to initiate radiolabeled phosphate (^33P‐phosphate) uptake. The final phosphate concentration was 2.5 µM and the final DMSO concentration was 1%. Following a 60‐min incubation at room temperature, an equal volume of assay buffer containing 400 µM phloretin was added to stop ^33P‐phosphate uptake. The plate was immediately read on a Wallac MicroBeta Trilux liquid scintillation counter. Percent inhibition at all concentrations tested was calculated, and IC50 values were then determined using a 4‐parameter logistic curve fitting equation.
(§2) The vendors for target cDNA are listed in supplemental Table 1. […]

Experiment [2] deals with T2, mouse NPT2b (Mus musculus, UniProt Q9DBP0).
T2 construct: Full-Length cDNA Cloning and Generation of Cell Lines Over-Expressing Human, Mouse, and Rat NPT2b; host or cells: CHO-K1 / T-REx CHO, pcDNA5/TO, tetracycline-induced
T2 sequence (Q9DBP0 1-697): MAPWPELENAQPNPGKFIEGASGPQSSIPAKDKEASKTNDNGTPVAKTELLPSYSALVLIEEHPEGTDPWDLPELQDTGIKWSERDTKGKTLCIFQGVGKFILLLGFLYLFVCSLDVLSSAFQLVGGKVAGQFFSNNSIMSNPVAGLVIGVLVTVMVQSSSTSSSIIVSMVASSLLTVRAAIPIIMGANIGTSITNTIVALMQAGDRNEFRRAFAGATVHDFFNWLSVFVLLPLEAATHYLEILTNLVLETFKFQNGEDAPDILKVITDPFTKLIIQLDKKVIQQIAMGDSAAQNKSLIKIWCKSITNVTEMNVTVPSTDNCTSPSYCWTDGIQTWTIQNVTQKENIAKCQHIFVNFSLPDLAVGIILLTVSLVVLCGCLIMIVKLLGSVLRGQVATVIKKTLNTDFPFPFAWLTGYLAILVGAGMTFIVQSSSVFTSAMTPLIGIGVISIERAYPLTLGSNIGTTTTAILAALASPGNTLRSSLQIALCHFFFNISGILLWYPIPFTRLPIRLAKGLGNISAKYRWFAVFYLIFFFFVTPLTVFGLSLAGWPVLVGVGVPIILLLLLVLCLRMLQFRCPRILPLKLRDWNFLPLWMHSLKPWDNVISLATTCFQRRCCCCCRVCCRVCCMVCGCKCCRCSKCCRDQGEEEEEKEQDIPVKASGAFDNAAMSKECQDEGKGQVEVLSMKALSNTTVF
In words: 33P-phosphate uptake in CHO cells expressing mouse NPT2b. Type of experiment: cell-based. The conditions noted are these: geometric mean; 2.5 µM phosphate, 60 min, room temperature. How it is done: as §1, §2

Each structure is given as a SMILES string.

Regarding `CC1(C)CN(C(=O)NCCCCO)CCN1Cc1cccc(C(=O)Nc2sc3c(c2C(=O)Nc2cc(F)c(CCc4ccc(C(=O)O)cc4)c(F)c2)CCCC3)c1` [LY3358966, 4‐[2‐[2,6‐difluoro‐4‐[[2‐[[3‐[[4‐(4‐hydroxybutylcarbamoyl)‐2,2‐dimethyl‐piperazin‐1‐yl]methyl]benzoyl]amino]‐4,5,6,7‐tetrahydrobenzothiophene‐3‐carbonyl]amino]phenyl]ethyl]benzoic acid], the IC50 was 26.8 nM in experiment [1] and 43.9 nM in experiment [2].

What is called IC50 is the midpoint of a concentration-inhibition curve. Higher therefore signals a need for much substance.
